Reference: PMC9740702, “Binding and Detoxification of Insecticides by Potentially Probiotic Lactic Acid Bacteria Isolated from Honeybee (Apis mellifera L.) Environment—An In Vitro Study” (Cells, 2022)

Tests used:
[1] = system: P. pentosaceus 14/1; test: Effect of pesticides on the growth of LAB (microtitration assay); type: cell-based, Pediococcus pentosaceus; settings: 48 h incubation, versus non-exposed cells
Description: (§1) The experiments were conducted in transparent 96-well polystyrene microplates. The final concentrations of tested pesticides were 20, 100, and 500 µg/mL. Each well was inoculated with an overnight culture of an individual LAB strain at the density of 1.8–2.4 × 10^9 CFU/mL (6.0–8.0 according to McFarland standard). Each strain was tested in 4 replicates. Negative controls were non-exposed bacterial cells in MRS or MRS-F broth. The test was performed at 30 or 37 °C for 48 h.

[2] = system: LAB strains; test: Binding of pesticides to the cell wall of LAB (extent of binding); settings: whole live LAB cells, initial 100 µg/mL, 24 h
Description: Overnight cultures of LAB in MRS/MRS-F broth were centrifuged (3864× g, 15 min), and biomass was washed with sterile ultrapure water and centrifuged again. This procedure was repeated until the MRS/MRS-F broth was completely washed. Next, the biomass of whole live LAB cells was suspended in sterile ultrapure water with an individual pesticide solution (at a final concentration of 100 µg/mL, v/v) and thoroughly mixed. The density of LAB cells was 1.8–2.4 × 10^9 CFU/mL (6.0–8.0 according to McFarland standard). The positive controls (standards) were individual pesticides without LAB strains. Negative controls were LAB strains suspended in sterile ultrapure water without pesticides. The samples were incubated anaerobically at 30 °C for 24 h with continuous orbital shaking (240 r.p.m.) (LAUDA Varioshake VS 8 OE Shaker, Dr. R. Wobser Gmbh & Co., Lauda-Königshofen, […]). Finally, the supernatants containing residual pesticide were collected by centrifugation (10,733× g, 20 min) and were filtered using sterile syringe filters (0.22 μm) and frozen in sterile vials until analysis at −20 °C.
Pesticides were analyzed according to Hafeez et al. (2015) using the HPLC-DAD technique with some modifications. For the qualitative–quantitative determination of pesticides, HPLC analysis was performed using a UHPLC+ Dionex UltiMate 3000 system (Thermo Fisher Scientific Inc., Waltham, MA, USA) equipped with a UV–Vis detector (Thermo Fisher Scientific Inc., Waltham, MA, USA) and NUCLEOSIL C18 column (4.6 × 250 mm, 5 µm particle size; Macherey-Nagel, Germany). Isocratic elution was carried out with 70/30 (v/v) acetonitrile/water as the mobile phase. The flow rate was set to 1.0 mL/min, and the column temperature was 25 °C. The injection volume was 20 µL. Detection and quantification were performed with two wavelengths: 219 nm for chlorpyrifos and coumaphos and 270 nm for imidacloprid. Quantification was performed using an external standard method. All measurements were made twice.

[3] = system: prostate epithelial WPM-Y1 cell line; design: method as in PMID 33456462; settings: 24 h, MTT assay; read-out: median inhibition value; cited from earlier work
[4] = system: P. acidilactici 8/1; test: Effect of pesticides on the growth of LAB (microtitration assay); type: cell-based, Pediococcus acidilactici; settings: 100 µg/mL, 48 h incubation, versus non-exposed cells
Description: as §1

[5] = system: LAB; design: method as in earlier work; settings: concentrations above 2 ppm; cited from earlier work
[6] = system: L. plantarum ISO; design: method as in PMID 28578396; settings: 295 µM, MRS medium, log phase; cited from earlier work
[7] = system: Enterococcus faecium E86, Lactococcus lactis subsp. lactis ATCC 11454, L. rhamnosus GG ATCC 53103, L. lactis Garvie ATCC 19256, Leuconostoc mesenteroides subsp.; design: method as in doi:10.1016/j.lwt.2019.02.037; settings: 500 mg/L; cited from earlier work
[8] = system: LAB strains; design: method as in PMID 28324568; settings: cited from earlier work
[9] = system: cat (Felis catus) fibroblast cells; settings: cited from earlier work

CCOP(=S)(OCC)Oc1ccc2c(C)c(Cl)c(=O)oc2c1 [coumaphos]
bacterial growth ([1]; 500 µg/mL): 100.6%
pesticide binding by LAB (highest extent) [2]: up to 57%

O=[N+]([O-])NC1=NCCN1Cc1ccc(Cl)nc1 [imidacloprid]
IC50 [3]: 23 µM
pesticide binding by LAB (highest extent) [2]: ≤ 36%
pesticide binding by LAB (highest extent) ([2]; listed as Imidacloprid): about 36%
bacterial growth [4]: 101.84%

ClC1=C(Cl)C2(Cl)C3C4CC(C5OC45)C3C1(Cl)C2(Cl)Cl (stereo not shown) [endrin]
effect on lactic acid production by LAB [5]: completely inhibited

Cl[C@H]1[C@H](Cl)[C@@H](Cl)[C@@H](Cl)[C@H](Cl)[C@H]1Cl [lindane]
effect on lactic acid production by LAB [5]: completely inhibited

CCOP(=S)(OCC)Oc1nc(Cl)c(Cl)cc1Cl [chlorpyrifos]
effect on growth of L. plantarum ISO [6]: significantly reduced the growth
effect on growth of LAB [7]: did not affect the growth
chlorpyrifos concentration at which some LAB strains were able to grow [8]: > 1400 µg/mL
bacterial growth ([1]; 20 µg/mL): 99.94%

CCOC(=O)CC(SP(=S)(OC)OC)C(=O)OCC (stereo not shown) [Malathion]
concentration at which maximum DNA damage was recorded [9]: 45000 µM
